Some test systems named below: HOP-62 NSCLC; DMS 273 small cell lung; KM20L2 colon; M19-MEL melanoma; SNB-78 CNS; DLD-1 colon; LXFL 529 NSCLC; DMS 114 small cell lung; HOP-18 NSCLC; RXF-631 renal; XF 498 CNS.
Holding throughout (assay): NCI-60 cell line screen, 48 h

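The compound was tested at five concentrations on cells cultured in 96-well plates, with a 48-hour exposure period. TGI denotes the concentration required for complete inhibition of growth.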

As to `Cc1ccc(C(=O)Oc2ccccc2)cc1N=NN(C)C`, the TGI in the test on HOP-62 NSCLC, with DMS 273 small cell lung, in the test on KM20L2 colon, in the test on M19-MEL melanoma, in the test with SNB-78 CNS and with DLD-1 colon was greater than 100 µM throughout. The same compound returned a TGI with LXFL 529 NSCLC greater than 100 µM.
Take `COc1cc(OC)c2c(=O)c3cccc(C)c3n(C)c2c1`: in the test with HOP-62 NSCLC, the TGI was greater than 100 µM.
Same read-out and setting: next, `O=C1Oc2ccccc2C(=O)/C1=C/N1C(=O)CNC1=S`: greater than 100 µM.
In the test with HOP-62 NSCLC, `Cc1[nH]c(-c2ccccc2)c2nc(N(C)C)oc(=O)c12` had a TGI greater than 100 µM.
Turning to `Cc1ccc(-c2cc(-c3ccccc3)c(C#N)c(=O)[nH]2)cc1`, the TGI in the test on HOP-62 NSCLC, in the test with DMS 273 small cell lung, in the test with KM20L2 colon, in the test with DMS 114 small cell lung, in the test on M19-MEL melanoma and with HOP-18 NSCLC was greater than 100 µM each time. The TGI in the test on SNB-78 CNS, in the test with DLD-1 colon, in the test with LXFL 529 NSCLC and with RXF-631 renal was greater than 100 µM throughout.
With `COC(=O)[C@@](NC(=O)OCc1ccccc1)([C@H](C)O)C(F)(F)F`, the TGI in the test on HOP-62 NSCLC was greater than 100 µM.
In the test with HOP-62 NSCLC, `COc1ccc(COCC[C@H](C)OC2OC(CO)C(O)C(O)C2O)cc1` (stereo partly drawn) showed a TGI greater than 100 µM.
Take `COc1ccc(C2Cc3cc(OC)c(OC)c(OC)c3C2)cc1` (stereo not drawn): the TGI with HOP-62 NSCLC, in the test on DMS 273 small cell lung, with KM20L2 colon, with DMS 114 small cell lung, in the test with M19-MEL melanoma and with HOP-18 NSCLC was greater than 100 µM each time. The figures for the TGI in the test on SNB-78 CNS, in the test on DLD-1 colon and with XF 498 CNS were greater than 100 µM, greater than 100 µM and 54.5 µM, respectively.
Consider `O=C1NC(N/N=C\c2ccccc2)=N/C1=C/c1ccccc1`, for which the TGI in the test with HOP-62 NSCLC is 48.2 µM.
Turning to `CCCNCCCCC(NC(C)=O)C(=O)NCc1ccccc1` (stereo not drawn), the TGI in the test with HOP-62 NSCLC, in the test on DMS 273 small cell lung, with KM20L2 colon, with DMS 114 small cell lung, in the test on M19-MEL melanoma and in the test on SNB-78 CNS was greater than 100 µM throughout. Further, the TGI in the test on DLD-1 colon, with XF 498 CNS, in the test with LXFL 529 NSCLC and in the test with RXF-631 renal was greater than 100 µM in each case.
For the compound `CC(C)[Si]1(C(C)C)OCC2OC(n3ccc(=O)[nH]c3=O)C([Se]c3ccccc3)C2O[Si](C(C)C)(C(C)C)O1` (stereo not drawn), the TGI with HOP-62 NSCLC was found to be 25.2 µM.
`CC(=O)/C(=C\I)c1ccccc1` showed a TGI in the test on HOP-62 NSCLC of 46.9 µM.
Compound `C=C1C(=O)O[C@H]2C1C[C@H](O)[C@@]1(C)OC1CC[C@@]1(C)O[C@H]21` (stereo partly drawn) had a TGI in the test with HOP-62 NSCLC of 73.3 µM.
In the test with HOP-62 NSCLC, `Cc1ccc(S(=O)(=O)N2CCSCCSCCSCCN(S(=O)(=O)c3ccc(C)cc3)CC2)cc1` returned a TGI greater than 100 µM.
`Nc1ccccc1C(=O)N=Nc1c(O)[nH]c2ccccc12`: the TGI in the test on HOP-62 NSCLC is greater than 100 µM.
Consider `CN=c1sc2nc(C#N)c(C#N)nc2n1C`, for which the TGI in the test with HOP-62 NSCLC was 42.1 µM.
In the test on HOP-62 NSCLC, `O=C1NC2(CCNCC2)Oc2ccccc21` gave a TGI greater than 100 µM.
For the compound `COC(=O)/C=C(\C)CCC1SC1(C)C` (stereo not drawn), the TGI with HOP-62 NSCLC, with DMS 273 small cell lung, in the test with KM20L2 colon, with DMS 114 small cell lung, in the test with M19-MEL melanoma and with HOP-18 NSCLC was greater than 100 µM each time. Moreover, the TGI with SNB-78 CNS, with DLD-1 colon, in the test with XF 498 CNS and in the test with LXFL 529 NSCLC was greater than 100 µM throughout.
On to `O=[N+]1[C@H](c2ccccc2)[C@H](c2ccccc2)N1[O-]`, for which the TGI with HOP-62 NSCLC is 40.7 µM.
In the test on HOP-62 NSCLC, `Cc1cn(C2CC(N=[N+]=[N-])C(COP(=O)(O)OCC3OC(n4cc(F)c(=O)[nH]c4=O)CC3O)O2)c(=O)[nH]c1=O` (stereo not drawn) had a TGI greater than 100 µM.
`O=c1[nH][nH]c(=O)c2c1ccc1oc3ccccc3c12` gave a TGI in the test with HOP-62 NSCLC greater than 100 µM.
On to `NC(=O)[N+](=CC(=S)Nc1ccccc1Cl)C(N)=O`, for which, in the test on HOP-62 NSCLC, the TGI was greater than 100 µM.
With `CCOC(=O)c1nc2ccc(C(F)(F)F)cc2nc1Nc1ccc(OC)cc1`, the TGI in the test on HOP-62 NSCLC is 63.5 µM.
Turning to `CCCCCCCCC(O)c1ccc(/C=C\C(O)CCCC(=O)O)s1` (stereo not drawn), the TGI in the test on DMS 273 small cell lung, in the test on KM20L2 colon, in the test with DMS 114 small cell lung, in the test with M19-MEL melanoma, in the test on HOP-18 NSCLC and in the test with SNB-78 CNS was greater than 100 µM each time. Further, the TGI with DLD-1 colon, in the test with XF 498 CNS and in the test on LXFL 529 NSCLC was greater than 100 µM in each case.
